Measured values reported in patent US20130252930A1 (BIOMARIN PHARMACEUTICAL INC., priority 2010, published 2013).

Biological target: T1, CYP17 (human testicular microsome) (Homo sapiens, UniProt P05093)
T1 construct: using microsomal fraction from human testis (Celsis Cat #S00110) as the enzyme source; tissue Celsis S00110; host or cells: human testis microsomal fraction
T1 sequence (P05093 1-508): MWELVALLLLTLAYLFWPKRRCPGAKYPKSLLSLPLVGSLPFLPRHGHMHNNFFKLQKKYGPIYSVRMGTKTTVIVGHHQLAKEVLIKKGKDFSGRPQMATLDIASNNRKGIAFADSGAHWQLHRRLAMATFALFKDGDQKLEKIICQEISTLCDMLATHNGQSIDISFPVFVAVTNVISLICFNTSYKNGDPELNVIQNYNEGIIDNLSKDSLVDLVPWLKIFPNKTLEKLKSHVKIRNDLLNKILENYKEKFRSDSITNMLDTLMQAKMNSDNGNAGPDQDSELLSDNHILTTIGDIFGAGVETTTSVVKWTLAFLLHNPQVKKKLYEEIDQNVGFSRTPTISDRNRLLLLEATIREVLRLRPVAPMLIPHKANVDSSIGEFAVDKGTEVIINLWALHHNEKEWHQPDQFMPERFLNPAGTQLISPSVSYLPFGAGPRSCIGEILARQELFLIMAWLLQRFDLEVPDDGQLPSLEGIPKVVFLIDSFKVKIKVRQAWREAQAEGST
Experiment: CYP17 enzymatic assay (% inhibition at 1 nM) (Biological Example 12)
Assay type: biochemical
Conditions: compound at 1 nM, read-out: Biological Example No. 12: CYP17 enzymatic assay % inhibition at 1 nM

Compared with `C[C@]1(O)CC[C@@]2(C)C(CCC3C2CC[C@]2(C)C(c4cncc(Cl)c4)=CCC32)C1` (stereo partly drawn) [Compound 265, (3S,10S,13S)-17-(5-chloropyridin-3-yl)-3,10,13-trimethyl-2,3,4,5,6,7,8,9,10,11,12,13,14,15-tetradecahydro-1H-cyclopenta[a]phenanthren-3-ol], `C[C@@]1(O)CC[C@@]2(C)C(CCC3C2CC[C@]2(C)C(c4cncc(Cl)c4)=CCC32)C1` (stereo partly drawn) [Compound 266, (3R,10S,13S)-17-(5-chloropyridin-3-yl)-3,10,13-trimethyl-2,3,4,5,6,7,8,9,10,11,12,13,14,15-tetradecahydro-1H-cyclopenta[a]phenanthren-3-ol] is higher in inhibition at 0.001 µM: less than 10% for the first, 10 to 50% for the second.

`C[C@]12CC[C@H]3[C@@H](CC=C4C[C@@H](O)CC[C@@]43C)C1=CC=C2c1cncc(Cl)c1` [Compound 273, (3S,10R,13S)-17-(5-chloropyridin-3-yl)-10,13-dimethyl-2,3,4,7,8,9,10,11,12,13-decahydro-1H-cyclopenta[a]phenanthren-3-ol] and `C[C@]12CC[C@H](O)CC1=CCC1C2CC[C@]2(C)C(c3cncc(C#N)c3)=CCC12` (stereo partly drawn) [Compound 275, 5-((3S,10R,13S)-3-hydroxy-10,13-dimethyl-2,3,4,7,8,9,10,11,12,13,14,15-dodecahydro-1H-cyclopenta[a]phenanthren-17-yl)nicotinonitrile] fall in the same range of inhibition at 0.001 µM: 10 to 50% for the first, 10 to 50% for the second.

First: Cc1cnc(F)c(C2=CCC3C4CC=C5C[C@@H](O)CC[C@]5(C)C4CC[C@]23C)c1 (stereo partly drawn) [Compound 277, (3S,10R,13S)-17-(2-fluoro-5-methylpyridin-3-yl)-10,13-dimethyl-2,3,4,7,8,9,10,11,12,13,14,15-dodecahydro-1H-cyclopenta[a]phenanthren-3-ol]
Second: Cc1cc(C2=CCC3C4CC=C5C[C@@H](O)CC[C@]5(C)C4CC[C@]23C)cnc1F (stereo partly drawn) [Compound 278, (3S,10R,13S)-17-(6-fluoro-5-methylpyridin-3-yl)-10,13-dimethyl-2,3,4,7,8,9,10,11,12,13,14,15-dodecahydro-1H-cyclopenta[a]phenanthren-3-ol]
The inhibition at 0.001 µM of the first is higher: 10 to 50% for the first, less than 10% for the second.

`C[C@]12CC[C@H](O)CC1=CCC1C2CC[C@]2(C)C(c3cncc(NS(=O)(=O)C(F)(F)F)c3)=CCC12` (stereo partly drawn) [Compound 282, 1,1,1-trifluoro-N-(5-((3S,10R,13S)-3-hydroxy-10,13-dimethyl-2,3,4,7,8,9,10,11,12,13,14,15-dodecahydro-1H-cyclopenta[a]phenanthren-17-yl)pyridin-3-yl)methanesulfonamide] and `C[C@]12CC[C@H](O)CC1=CCC1C2CC[C@]2(C)C(c3cncc(NS(C)(=O)=O)c3)=CCC12` (stereo partly drawn) [Compound 284, N-(5-((3S,10R,13S)-3-hydroxy-10,13-dimethyl-2,3,4,7,8,9,10,11,12,13,14,15-dodecahydro-1H-cyclopenta[a]phenanthren-17-yl)pyridin-3-yl)methanesulfonamide] cannot be ordered by inhibition at 0.001 µM: less than 10% for the first, less than 10% for the second.

`CC1C(O)CC[C@@]2(C)C1CCC1C2CC[C@]2(C)C(c3cncc(F)c3)=CCC12` (stereo partly drawn) [Compound 305, (10R,13S)-17-(5-fluoropyridin-3-yl)-4,10,13-trimethyl-2,3,4,5,6,7,8,9,10,11,12,13,14,15-tetradecahydro-1H-cyclopenta[a]phenanthren-3-ol] and `CC1C(O)CC[C@@]2(C)C1CCC1C2CC[C@]2(C)C(c3cncc(C(F)F)c3)=CCC12` (stereo partly drawn) [Compound 306, (10R,13S)-17-(5-(difluoromethyl)pyridin-3-yl)-4,10,13-trimethyl-2,3,4,5,6,7,8,9,10,11,12,13,14,15-tetradecahydro-1H-cyclopenta[a]phenanthren-3-ol] cannot be ordered by inhibition at 0.001 µM: less than 10% for the first, less than 10% for the second.

Same assay, conditions: compound at 1 nM, read-out: CYP17 enzymatic assay % inhibition at 1 nM (Biological Example No. 12)

`CCNC(=O)NC1CC[C@@]2(C)C(=CC[C@@H]3[C@@H]2CC[C@]2(C)C(c4cncc(OC)c4)=CC[C@@H]32)C1` (stereo partly drawn) [Compound 234, 1-ethyl-3-((10R,13S)-17-(5-methoxypyridin-3-yl)-10,13-dimethyl-2,3,4,7,8,9,10,11,12,13,14,15-dodecahydro-1H-cyclopenta[a]phenanthren-3-yl)urea] and `C[C@]12CCC(NC(=O)c3nccs3)CC1=CCC1C2CC[C@]2(C)C(n3ccnc3)=CCC12` (stereo partly drawn) [Compound 241, N-((10R,13S)-17-(1H-imidazol-1-yl)-10,13-dimethyl-2,3,4,7,8,9,10,11,12,13,14,15-dodecahydro-1H-cyclopenta[a]phenanthren-3-yl)thiazole-2-carboxamide] fall in the same range of inhibition at 0.001 µM: 10 to 50% for the first, 10 to 50% for the second.

First: CCNC(=O)N[C@@H]1CC[C@@]2(C)C(CC[C@@H]3[C@@H]2CC[C@]2(C)C(n4ccnc4)=CC[C@@H]32)C1 (stereo partly drawn) [Compound 247, 1-((3R,10S,13S)-17-(1H-imidazol-1-yl)-10,13-dimethyl-2,3,4,5,6,7,8,9,10,11,12,13,14,15-tetradecahydro-1H-cyclopenta[a]phenanthren-3-yl)-3-ethylurea]
Second: C#C[C@@]1(O)CC[C@@]2(C)C(CCC3C2CC[C@]2(C)C(c4cccnc4)=CCC32)C1 (stereo partly drawn) [Compound 257, (3R,10S,13S)-3-ethynyl-10,13-dimethyl-17-(pyridin-3-yl)-2,3,4,5,6,7,8,9,10,11,12,13,14,15-tetradecahydro-1H-cyclopenta[a]phenanthren-3-ol]
The inhibition at 0.001 µM of the first is higher: greater than 50% for the first, 10 to 50% for the second.

Going from `C[C@]12CC[C@H]3[C@@H](CC(=O)C45CC4CC[C@]35C)C1=CC=C2c1cccnc1` (stereo partly drawn) [Compound 250, (3aR,5aS)-3a,5a-dimethyl-6-(pyridin-3-yl)-1a,2,3,3a,3b,4,5,5a,8b,9-decahydrocyclopenta[a]cyclopropa[2,3]cyclopenta[1,2-f]naphthalen-10(1H)-one] to `C[C@@]1(O)CC[C@@]2(C)C(CCC3C4=CC=C(c5cccnc5)[C@@]4(C)CCC32)C1` (stereo partly drawn) [Compound 260, (3R,10S,13S)-3,10,13-trimethyl-17-(pyridin-3-yl)-2,3,4,5,6,7,8,9,10,11,12,13-dodecahydro-1H-cyclopenta[a]phenanthren-3-ol], the inhibition at 0.001 µM falls from greater than 50% to less than 10%.

First: C[C@]12CC[C@H]3[C@@H](CC(Nc4nccs4)C45CC4CC[C@]35C)[C@@H]1CC=C2c1cccnc1 (stereo partly drawn) [Compound 251, N-((3aR,5aS)-3a,5a-dimethyl-6-(pyridin-3-yl)-1,1a,2,3,3a,3b,4,5,5a,8,8a,8b,9,10-tetradecahydrocyclopenta[a]cyclopropa[2,3]cyclopenta[1,2-f]naphthalen-10-yl)thiazol-2-amine]
Second: C[C@@]1(O)CC[C@@]2(C)C(CCC3C2CC[C@]2(C)C(c4cccnc4)=CCC32)C1 (stereo partly drawn) [Compound 253, (3R,10S,13S)-3,10,13-trimethyl-17-(pyridin-3-yl)-2,3,4,5,6,7,8,9,10,11,12,13,14,15-tetradecahydro-1H-cyclopenta[a]phenanthren-3-ol]
The inhibition at 0.001 µM of the first is higher: 10 to 50% for the first, less than 10% for the second.

First: C[C@]12CC[C@@](O)(C3CC3)CC1CC[C@@H]1[C@@H]2CC[C@]2(C)C(c3cccnc3)=CC[C@@H]12 (stereo partly drawn) [Compound 252, (3S,10S,13S)-3-cyclopropyl-10,13-dimethyl-17-(pyridin-3-yl)-2,3,4,5,6,7,8,9,10,11,12,13,14,15-tetradecahydro-1H-cyclopenta[a]phenanthren-3-ol]
Second: CC1(C)C2=CC[C@@H]3[C@H](CC[C@]4(C)C(c5cccnc5)=CC[C@@H]34)[C@@]2(C)CCC1O (stereo partly drawn) [Compound 294, (10R,13S)-4,4,10,13-tetramethyl-17-(pyridin-3-yl)-2,3,4,7,8,9,10,11,12,13,14,15-dodecahydro-1H-cyclopenta[a]phenanthren-3-ol]
The inhibition at 0.001 µM of the first is higher: 10 to 50% for the first, less than 10% for the second.

`CC1(C)C(=O)CC[C@@]2(C)C1=CC[C@@H]1[C@@H]2CC[C@]2(C)C(c3cccnc3)=CC[C@@H]12` [Compound 293, (10R,13S)-4,4,10,13-tetramethyl-17-(pyridin-3-yl)-4,7,8,9,10,11,12,13,14,15-decahydro-1H-cyclopenta[a]phenanthren-3(2H)-one] was tested, and the inhibition at 0.001 µM was less than 10%.

Same assay, conditions: test compound at 1 nM, read-out: CYP17 enzymatic assay percent inhibition at 1 nM (Biological Example No. 12)

`C[C@@]1(O)CC[C@@]2(C)C(=CCC3C2CC[C@]2(C)C(c4cccnc4)=CCC32)C1` (stereo partly drawn) [Compound 267, (3R,10R,13S)-3,10,13-trimethyl-17-(pyridin-3-yl)-2,3,4,7,8,9,10,11,12,13,14,15-dodecahydro-1H-cyclopenta[a]phenanthren-3-ol] and `C[C@]1(O)CC[C@@]2(C)C(=CCC3C2CC[C@]2(C)C(c4cccnc4)=CCC32)C1` (stereo partly drawn) [Compound 268, (3S,10R,13S)-3,10,13-trimethyl-17-(pyridin-3-yl)-2,3,4,7,8,9,10,11,12,13,14,15-dodecahydro-1H-cyclopenta[a]phenanthren-3-ol] cannot be ordered by inhibition at 0.001 µM: greater than 50% for the first, greater than 50% for the second.

First: C[C@]1(O)CC[C@@]2(C)C(=CCC3C2CC[C@]2(C)C(c4cncc(F)c4)=CCC32)C1 (stereo partly drawn) [Compound 270, (3S,10R,13S)-17-(5-fluoropyridin-3-yl)-3,10,13-trimethyl-2,3,4,7,8,9,10,11,12,13,14,15-dodecahydro-1H-cyclopenta[a]phenanthren-3-ol]
Second: CC(=O)Nc1cncc(C2=CCC3C4CC=C5C[C@@H](O)CC[C@]5(C)C4CC[C@]23C)c1 (stereo partly drawn) [Compound 281, N-(5-((3S,10R,13S)-3-hydroxy-10,13-dimethyl-2,3,4,7,8,9,10,11,12,13,14,15-dodecahydro-1H-cyclopenta[a]phenanthren-17-yl)pyridin-3-yl)acetamide]
The inhibition at 0.001 µM of the first is higher: 10 to 50% for the first, less than 10% for the second.
